Source: US12090140B2, “Non-sedating dexmedetomidine treatment regimens” (priority 2023, dated 2024)
Values joined by “and” are separate entries in the source; they are usually repeats but may differ in a detail not shown here. Equal values may be shown once. Where a name gives a salt, the structure may show the parent alone. Read-outs that look alike come from different tables or passages of the source.

How the values were obtained:
[1] = system: subjects suffering from schizophrenia; settings: for RASS values after infusion start, individual patients: IV infusion, treatment arm
Text: Another Key Objective of the study was to determine the reduction in the level of agitation, as determined by their PEC score, at the doses to achieve a RASS of −1.
Patients 5, 7, 8 and 9 received placebo.

[2] = system: agitation in subjects suffering from schizophrenia
[3] = IV infusion
Text: (§1) Mean infusion rate is 0.36 mcg/kg/hr with the maximum rate ranging from about 0.2 mcg/kg/hr to about 0.6 mcg/kg/hr (see FIGS. 18 to 20).

[4] = clinical; settings: human, in vivo, iv
Text: as §1

[5] = system: plasma proteins; settings: in vitro; cited from earlier work
[6] = pH 7.4; cited from earlier work
[7] = cited from earlier work; for Mean clearance relative to subjects with normal hepatic function: IV infusion of 0.6 meg/kg over 10 minutes
[8] = system: adult patients and healthy adult subjects; settings: cited from earlier work
[9] = IV infusion from 0.2 mcg/kg/hr, rising 0.1 mcg/kg/hr every 30 minutes

For `Cc1cccc([C@H](C)c2cnc[nH]2)c1C` [Dexmedetomidine hydrochloride, 4-[(1S)-1-(2,3-dimethylphenyl)ethyl]-1H-imidazole hydrochloride], the “RASS values after infusion start, individual patients” value (“RASS values after infusion start” below) ([1]; 15 minutes, hydrochloride) was −2 and −1, the “RASS values after infusion start” value ([1]; 30 minutes) was 0 and the “RASS values after infusion start” value ([1]; 75 minutes) was −1. The “RASS values after infusion start” value ([1]; 90 minutes) was 0, the “Patients achieving a RASS score of at least −1” value [1, 9] was 9 out of 10 and the “RASS values after infusion start” value ([1]; […]) was 0. The “Patients with agitation reduced to a minimum (PEC score of 7 or below)” value [2, 9] was 9 out of 10, the “Subjects with >=50% reduction in PEC score” value ([2]; IV route) was 7 of 10 and the “Subjects with a 40% reduction in PEC score at a Cmax of =<72 μg/mL” value ([2]; IV route) was 5 of 10. For the same molecule, the Plasma level concentration ([3]; Patient 1 (treatment), 15 min) was 0.02245 ng/mL, the Plasma level concentration ([3]; Patient 1 (treatment), 30 min) was 0.01472 ng/mL and the Plasma level concentration ([3]; Patient 4 (treatment), 90 min) was 0.0443 ng/mL. It also gave a Plasma level concentration ([3]; Patient 11 (treatment), 15 min) of 0.04101 ng/mL, a Plasma level concentration ([3]; Patient 11 (treatment), 30 min) of 0.06291 ng/mL and a Plasma level concentration ([3]; Patient 11 (treatment), 45 min) of 0.12407 ng/mL. It also gave a Plasma level concentration ([3]; Patient 11 (treatment), 60 min) of 0.15047 ng/mL, a Plasma level concentration ([3]; Patient 12 (treatment), 30 min) of 0.04487 ng/mL and a Plasma level concentration ([3]; Patient 12 (treatment), 45 min) of 0.05051 ng/mL. For the same molecule, the Plasma level concentration ([3]; Patient 12 (treatment), 60 min) was 0.1086 ng/mL, the Plasma level concentration ([3]; Patient 12 (treatment), 75 min) was 0.15854 ng/mL and the Plasma level concentration ([3]; Patient 12 (treatment), 90 min) was 0.23783 ng/mL. The Plasma level concentration ([3]; Patient 14 (treatment), 30 min) was 0.05266 ng/mL, the Plasma level concentration ([3]; Patient 14 (treatment), 45 min) was 0.04653 ng/mL and the Plasma level concentration ([3]; Patient 14 (treatment), 60 min) was 0.4063 ng/mL. It also gave a Plasma level concentration ([3]; Patient 16 (treatment), 15 min) of 0.00256 ng/mL, a Plasma level concentration ([3]; Patient 16 (treatment), 30 min) of 0.01559 ng/mL and a Plasma level concentration ([3]; Patient 16 (treatment), 45 min) of 0.04117 ng/mL. The Plasma level concentration ([3]; Patient 16 (treatment), 60 min) was 0.06788 ng/mL, the Plasma level concentration ([3]; Patient 16 (treatment), 75 min) was 0.07226 ng/mL and the Plasma level concentration ([3]; Patient 17 (treatment), 15 min) was 0.01587 ng/mL. It also gave a Plasma level concentration ([3]; Patient 17 (treatment), 45 min) of 0.03993 ng/mL, a Plasma level concentration ([3]; Patient 18 (treatment), 15 min) of 0.04836 ng/mL and a Plasma level concentration ([3]; Patient 18 (treatment), 30 min) of 0.05453 ng/mL. For the same molecule, the Cmax [4] was 0.022 ng/mL, the “Displacement of phenytoin, warfarin, ibuprofen, propranolol, theophylline and digoxin” value [5] was “none of these compounds appeared to be significantly displaced” and the “Partition coefficient in octanol/water” value [6] was 2.89.
For `Cc1cccc([C@H](C)c2c[nH]cn2)c1C` [intravenous dexmedetomidine], the “Effect of sex on pharmacokinetics” value ([7]; intravenous) is listed as “no observed difference”, the “Mean clearance relative to subjects with normal hepatic function” value (from here on “Mean clearance relative to subjects”) ([7]; mild hepatic impairment) is listed as 74% and the “Mean clearance for free drug relative to subjects with normal hepatic function” value ([7]; mild hepatic impairment) is listed as 59%. For the same molecule, the “Mean clearance relative to subjects” value ([7]; moderate hepatic impairment) was 64%, the “Mean clearance for free drug relative to subjects with normal hepatic function” value ([7]; moderate hepatic impairment) was 51% and the “Mean clearance relative to subjects” value ([7]; severe hepatic impairment) was 53%. The “Mean clearance for free drug relative to subjects with normal hepatic function” value ([7]; severe hepatic impairment) was 32%, the Effects of overdose ([8]; IV 2 mcg/kg loading dose over 10 minutes, two patients) was “bradycardia and/or hypotension” and the “Maximum blood concentration in tolerability study” value ([8]; IV doses at and above 0.2 to 0.7 mcg/kg/hour, healthy adult subjects) was “approximately 13 times the upper boundary of the therapeutic range”. For the same molecule, the “Most notable effects at the highest doses” value ([8]; IV tolerability study, two subjects) was “first degree atrioventricular block and second-degree heart block”, the “Adult patients with at least 1 event related to withdrawal, n (%)” value ([8]; IV up to 7 days, within the first 24 hours after discontinuing) was 12 (5%) and the “Adult patients with at least 1 event related to withdrawal, n (%)” value ([8]; IV, 24 to 48 hours after discontinuing) was 7 (3%). The “Frequency of tachycardia and hypertension requiring intervention” value ([8]; IV, 48 hours following discontinuation) was less than 5%.
